Laboratory results taken from PMC11042500 (Journal of medicinal chemistry, 2020).
Read-outs that look alike come from different tables or passages of the source.

Key:
[1] = system: L6 rat myoblast cells; assay: Oxygen consumption rate; conditions: for uncoupling activity (in words): OCR in L6 rat myoblast cells
[2] = Core body temperature after acute oral dose; type: in vivo; conditions: acute oral dose 5, 20, 50 mg/kg, up to 4 h, C57BL/6 male mice; listed as SHS4121705
[3] = system: STAM mouse model of NASH; assay: STAM; type: in vivo, mice; conditions: SHS4121705 25 mg kg−1 d−1 in food
[4] = use in humans; cited from earlier work
[5] = system: STAM mouse model of NASH; conditions: STZ-induced mouse model of NASH; cited from earlier work

In the case of `Oc1nc2nonc2nc1Nc1ccccc1F` [12a, 6-((2-Fluorophenyl)amino)-[1,2,5]oxadiazolo[3,4-b]pyrazin-5-ol], the loss of potency ([1]; OCR EC50 of 12a compared with parent diamine uncoupler) is reported as 40 ×.
In the case of `CN(c1ccccc1F)c1nc2nonc2nc1O` [12ae, 6-((2-Fluorophenyl)(methyl)amino)-[1,2,5]oxadiazolo[3,4-b]pyrazin-5-ol], the “uncoupling activity (in words)” value [1] is reported as “completely devoid of uncoupling activity”.
In the case of `Oc1nc2nonc2nc1Nc1ccc(OC(F)(F)F)cc1` [12i, 6-((4-(Trifluoromethoxy)phenyl)amino)-[1,2,5]oxadiazolo[3,4-b]pyrazin-5-ol], the “effect on core body temperature” value [2] is reported as “no effect”, the ballooning score ([3]; 21 days) is reported as 0.25 ± 0.16 and the inflammation score ([3]; 21 days) is reported as 2.38 ± 0.18. For the same molecule, the steatosis score ([3]; 21 days) was 0 ± 0 and the “NAS score (NAFLD activity score)” value ([3]; liver, day 21) was 2.63 ± 0.18.
For `Oc1nc2nonc2nc1Nc1ccc(C(F)(F)F)c(F)c1` [12v, 6-((3-Fluoro-4-(trifluoromethyl)phenyl)amino)-[1,2,5]oxadiazolo[3,4-b]pyrazin-5-ol], the “fold less potent than 12i” value ([1]; OCR EC50 relative to 12i) was over 2 fold.
With `Oc1nccnc1Nc1ccccc1F` [16a, 3-((2-Fluorophenyl)amino)pyrazin-2-ol] the “uncoupling activity (in words)” value [1] was “inactive”.
For `CCCCCCCCCCc1ccc(Nc2nccnc2O)cc1` [16b, 3-((4-Decylphenyl)amino)pyrazin-2-ol], the “uncoupling activity (in words)” value [1] was “inactive”.
For `COc1cccc(-c2ccc(Nc3nccnc3O)cc2)c1` [16g, 3-((3′-Methoxy-[1,1′-biphenyl]-4-yl)amino)pyrazin-2-ol], the “uncoupling activity (in words)” value [1] was “inactive”.
With `Oc1nccnc1Nc1ccc(-c2ccc(F)cc2)cc1` [16h, 3-((4′-Fluoro-[1,1′-biphenyl]-4-yl)amino)pyrazin-2-ol] the “uncoupling activity (in words)” value [1] was “inactive”.
In the case of `O=[N+]([O-])c1ccc(O)c([N+](=O)[O-])c1` [DNP, 2,4-dinitrophenol], the increase in metabolism [4] is listed as over 50%.
For `Fc1cccc(Nc2nc3nonc3nc2Nc2ccccc2F)c1` [compound 9], the fibrosis score [5] is listed as “reduced”, the inflammation score [5] is listed as “reduced” and the liver triglyceride levels [5] is listed as “lowered”.
In the case of `COc1nc2nonc2nc1Nc1ccc(OC(F)(F)F)cc1` [compound 13, 6-Methoxy-N-(4-(trifluoromethoxy)phenyl)-[1,2,5]oxadiazolo[3,4-b]pyrazin-5-amine], the “uncoupling activity (in words)” value [1] is reported as “significantly abrogated”.
